Experimental data from PubChem BioAssay (NCI).
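Exposure lasted 48 hours, with cells grown in 96-well plates and compounds tested at five concentrations. At the GI50, growth is halved. TGI: concentration producing complete growth inhibition.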

Experiments:
Test in all cases: NCI tumour cell line growth inhibition, 48 h
786-0 renal = tested on: 786-0 renal
A498 renal = tested on: A498 renal
A549 NSCLC = tested on: A549 NSCLC
ACHN renal = tested on: ACHN renal
BT-549 breast = tested on: BT-549 breast
CAKI-1 renal = tested on: CAKI-1 renal
CCRF-CEM leukemia = tested on: CCRF-CEM leukemia
COLO 205 colon = tested on: COLO 205 colon
DU-145 prostate = tested on: DU-145 prostate
EKVX NSCLC = tested on: EKVX NSCLC
HCC-2998 colon = tested on: HCC-2998 colon
HCT-116 colon = tested on: HCT-116 colon
HCT-15 colon = tested on: HCT-15 colon
HL-60(TB) leukemia = tested on: HL-60(TB) leukemia
HOP-62 NSCLC = tested on: HOP-62 NSCLC
HOP-92 NSCLC = tested on: HOP-92 NSCLC
HS 578T breast = tested on: HS 578T breast
HT29 colon = tested on: HT29 colon
IGROV1 ovarian = tested on: IGROV1 ovarian
K-562 leukemia = tested on: K-562 leukemia
KM12 colon = tested on: KM12 colon
LOX IMVI melanoma = tested on: LOX IMVI melanoma
MALME-3M melanoma = tested on: MALME-3M melanoma
MCF7 breast = tested on: MCF7 breast
MDA-MB-231 breast = tested on: MDA-MB-231 breast
MDA-MB-435 = tested on: MDA-MB-435
MOLT-4 leukemia = tested on: MOLT-4 leukemia
NCI-H226 lung = tested on: NCI-H226 lung
NCI-H23 lung = tested on: NCI-H23 lung
NCI-H460 lung = tested on: NCI-H460 lung
NCI-H522 lung = tested on: NCI-H522 lung
NCI/ADR-RES ovarian = tested on: NCI/ADR-RES ovarian
OVCAR-3 ovarian = tested on: OVCAR-3 ovarian
OVCAR-4 ovarian = tested on: OVCAR-4 ovarian
OVCAR-5 ovarian = tested on: OVCAR-5 ovarian
OVCAR-8 ovarian = tested on: OVCAR-8 ovarian
PC-3 prostate = tested on: PC-3 prostate
RPMI-8226 leukemia = tested on: RPMI-8226 leukemia
RXF 393 renal = tested on: RXF 393 renal
SF-268 CNS = tested on: SF-268 CNS
SF-295 CNS = tested on: SF-295 CNS
SF-539 CNS = tested on: SF-539 CNS
SK-MEL-2 melanoma = tested on: SK-MEL-2 melanoma
SK-MEL-28 melanoma = tested on: SK-MEL-28 melanoma
SK-MEL-5 melanoma = tested on: SK-MEL-5 melanoma
SK-OV-3 ovarian = tested on: SK-OV-3 ovarian
SN12C renal = tested on: SN12C renal
SNB-19 CNS = tested on: SNB-19 CNS
SNB-75 CNS = tested on: SNB-75 CNS
SR leukemia = tested on: SR leukemia
SW-620 colon = tested on: SW-620 colon
T-47D breast = tested on: T-47D breast
TK-10 renal = tested on: TK-10 renal
U251 CNS = tested on: U251 CNS
UACC-257 melanoma = tested on: UACC-257 melanoma
UACC-62 melanoma = tested on: UACC-62 melanoma
UO-31 renal = tested on: UO-31 renal

CS(=O)(=O)c1ccc(Oc2cc(F)cc(C#N)c2)c2c1[C@H](O)[C@H](F)[C@H]2F
GI50 (786-0 renal): > 100 µM
TGI (786-0 renal): > 100 µM
GI50 (A498 renal): > 100 µM
TGI (A498 renal): > 100 µM
GI50 (A549 NSCLC): > 100 µM
TGI (A549 NSCLC): > 100 µM
GI50 (ACHN renal): > 100 µM
TGI (ACHN renal): > 100 µM
GI50 (BT-549 breast): > 100 µM
TGI (BT-549 breast): > 100 µM
GI50 (CAKI-1 renal): > 100 µM
TGI (CAKI-1 renal): > 100 µM
GI50 (CCRF-CEM leukemia): > 100 µM
TGI (CCRF-CEM leukemia): > 100 µM
GI50 (COLO 205 colon): > 100 µM
TGI (COLO 205 colon): > 100 µM
GI50 (DU-145 prostate): > 100 µM
TGI (DU-145 prostate): > 100 µM
GI50 (EKVX NSCLC): > 100 µM
TGI (EKVX NSCLC): > 100 µM
GI50 (HCC-2998 colon): > 100 µM
TGI (HCC-2998 colon): > 100 µM
GI50 (HCT-116 colon): > 100 µM
TGI (HCT-116 colon): > 100 µM
GI50 (HCT-15 colon): > 100 µM
TGI (HCT-15 colon): > 100 µM
GI50 (HL-60(TB) leukemia): > 100 µM
TGI (HL-60(TB) leukemia): > 100 µM
GI50 (HOP-62 NSCLC): > 100 µM
TGI (HOP-62 NSCLC): > 100 µM
GI50 (HOP-92 NSCLC): > 100 µM
TGI (HOP-92 NSCLC): > 100 µM
GI50 (HS 578T breast): > 100 µM
TGI (HS 578T breast): > 100 µM
GI50 (HT29 colon): > 100 µM
TGI (HT29 colon): > 100 µM
GI50 (IGROV1 ovarian): > 100 µM
TGI (IGROV1 ovarian): > 100 µM
GI50 (K-562 leukemia): > 100 µM
TGI (K-562 leukemia): > 100 µM
GI50 (KM12 colon): > 100 µM
TGI (KM12 colon): > 100 µM
GI50 (LOX IMVI melanoma): > 100 µM
TGI (LOX IMVI melanoma): > 100 µM
GI50 (MALME-3M melanoma): > 100 µM
TGI (MALME-3M melanoma): > 100 µM
GI50 (MCF7 breast): > 100 µM
TGI (MCF7 breast): > 100 µM
GI50 (MDA-MB-231 breast): > 100 µM
TGI (MDA-MB-231 breast): > 100 µM
GI50 (MDA-MB-435): > 100 µM
TGI (MDA-MB-435): > 100 µM
GI50 (MOLT-4 leukemia): > 100 µM
TGI (MOLT-4 leukemia): > 100 µM
GI50 (NCI-H226 lung): > 100 µM
TGI (NCI-H226 lung): > 100 µM
GI50 (NCI-H23 lung): > 100 µM
TGI (NCI-H23 lung): > 100 µM
GI50 (NCI-H460 lung): > 100 µM
TGI (NCI-H460 lung): > 100 µM
GI50 (NCI-H522 lung): > 100 µM
TGI (NCI-H522 lung): > 100 µM
GI50 (NCI/ADR-RES ovarian): > 100 µM
TGI (NCI/ADR-RES ovarian): > 100 µM
GI50 (OVCAR-3 ovarian): > 100 µM
TGI (OVCAR-3 ovarian): > 100 µM
GI50 (OVCAR-4 ovarian): > 100 µM
TGI (OVCAR-4 ovarian): > 100 µM
GI50 (OVCAR-5 ovarian): > 100 µM
TGI (OVCAR-5 ovarian): > 100 µM
GI50 (OVCAR-8 ovarian): > 100 µM
TGI (OVCAR-8 ovarian): > 100 µM
GI50 (PC-3 prostate): > 100 µM
TGI (PC-3 prostate): > 100 µM
GI50 (RPMI-8226 leukemia): > 100 µM
TGI (RPMI-8226 leukemia): > 100 µM
GI50 (RXF 393 renal): 2.53 µM
TGI (RXF 393 renal): > 100 µM
GI50 (SF-268 CNS): > 100 µM
TGI (SF-268 CNS): > 100 µM
GI50 (SF-295 CNS): > 100 µM
TGI (SF-295 CNS): > 100 µM
GI50 (SF-539 CNS): > 100 µM
TGI (SF-539 CNS): > 100 µM
GI50 (SK-MEL-2 melanoma): > 100 µM
TGI (SK-MEL-2 melanoma): > 100 µM
GI50 (SK-MEL-28 melanoma): > 100 µM
TGI (SK-MEL-28 melanoma): > 100 µM
GI50 (SK-MEL-5 melanoma): > 100 µM
TGI (SK-MEL-5 melanoma): > 100 µM
GI50 (SK-OV-3 ovarian): > 100 µM
TGI (SK-OV-3 ovarian): > 100 µM
GI50 (SN12C renal): > 100 µM
TGI (SN12C renal): > 100 µM
GI50 (SNB-19 CNS): > 100 µM
TGI (SNB-19 CNS): > 100 µM
GI50 (SNB-75 CNS): > 100 µM
TGI (SNB-75 CNS): > 100 µM
GI50 (SR leukemia): > 100 µM
TGI (SR leukemia): > 100 µM
GI50 (SW-620 colon): > 100 µM
TGI (SW-620 colon): > 100 µM
GI50 (T-47D breast): > 100 µM
TGI (T-47D breast): > 100 µM
GI50 (TK-10 renal): > 100 µM
TGI (TK-10 renal): > 100 µM
GI50 (U251 CNS): > 100 µM
TGI (U251 CNS): > 100 µM
GI50 (UACC-257 melanoma): > 100 µM
TGI (UACC-257 melanoma): > 100 µM
GI50 (UACC-62 melanoma): > 100 µM
TGI (UACC-62 melanoma): > 100 µM
GI50 (UO-31 renal): > 100 µM
TGI (UO-31 renal): > 100 µM
